Test results taken from PMC3579312 (Journal of Medicinal Chemistry, 2013).
“Also recorded” adds a separate entry of the source.

Legend:
[1] = system: Trypanosoma brucei brucei bloodstream-form (strain 427); test: Trypanocidal activity, Alamar Blue viability, 72 h; type: cell-based; conditions: for Selectivity Index: HeLa EC50 versus T. brucei EC50; for combined trypanocidal action of 22s with nifurtimox: Figure 4
Chagas’ disease = conditions: patients with Chagas’ disease; cited from earlier work
[2] = system: nifurtimox-resistant T. brucei; test: Trypanocidal activity against cloned nifurtimox-resistant cell line; type: cell-based, Trypanosoma brucei
[3] = system: human African trypanosomiasis; conditions: cited from earlier work
22s-resistant T. brucei = test: Trypanocidal activity against cloned 22s-resistant cell line; type: cell-based, Trypanosoma brucei; conditions: 22s in 22s-resistant cells versus nifurtimox in wild-type

| SMILES | Selectivity Index [1] | also measured |
| --- | --- | --- |
| O=C(NCc1cccc(C(F)(F)F)c1)c1ccc([N+](=O)[O-])o1 [Compound 22l, 5-nitro-N-(3-(trifluoromethyl)benzyl)furan-2-carboxamide] | >1149 |  |
| CCNC(=O)c1cc(CC)sc1NC(=O)c1ccc([N+](=O)[O-])o1 [Compound 12e] | >136 |  |
| O=C(Nc1ccc(O)cc1)c1ccc([N+](=O)[O-])o1 [Compound 22p] | >50 |  |
| O=C(Nc1ccc(C(F)(F)F)cc1)c1ccc([N+](=O)[O-])o1 [Compound 22h, 5-Nitro-N-(4-(trifluoromethyl)phenyl)furan-2-carboxamide] | >158 |  |
| CCOC(=O)c1ccsc1NC(=O)c1ccc([N+](=O)[O-])o1 [Compound 12k] | >278 |  |
| CCc1cc(C(=O)NCCO)c(NC(=O)c2ccc([N+](=O)[O-])o2)s1 [Compound 12h] | >253 |  |
| COC(=O)c1ccc([N+](=O)[O-])o1 [Compound 19] |  | activity against T. brucei (in words) [1]: inactive |
| CCOC(=O)c1cc(CC)sc1NC(=O)c1ccco1 [Compound 18a] |  | activity against T. brucei (in words) [1]: no activity |
| O=C(Nc1ccc(Cl)cc1)c1ccc([N+](=O)[O-])o1 [Compound 22i] | >48 |  |
| O=C(Nc1ccccc1)c1ccc([N+](=O)[O-])o1 [Compound 22b] | >710 |  |
| CCCCc1cc(C(=O)OCC)c(NC(=O)c2ccc([N+](=O)[O-])o2)s1 [Compound 12b] | >160 |  |
| O=C(Nc1cccs1)c1ccc([N+](=O)[O-])o1 [Compound 12j] | >322 |  |
| COc1cc(NC(=O)c2ccc([N+](=O)[O-])o2)cc(C(F)(F)F)c1 [Compound 22m] | >752 |  |
| CCCCOC(=O)c1cc(CC)sc1NC(=O)c1ccc([N+](=O)[O-])o1 [Compound 12d] | >625 |  |
| CCc1cc(C(N)=O)c(NC(=O)c2ccc([N+](=O)[O-])o2)s1 [Compound 12g, N-(3-Carbamoyl-5-ethylthiophen-2-yl)-5-nitrofuran-2-carboxamide] | >1155 |  |
| O=C(Nc1ccc(O)c(C(F)(F)F)c1)c1ccc([N+](=O)[O-])o1 [Compound 22r] | >9 |  |
| COC(=O)c1ccc(NC(=O)c2ccc([N+](=O)[O-])o2)cc1 [Compound 22j] | >29 |  |
| COc1cccc(NC(=O)c2ccc([N+](=O)[O-])o2)c1 [Compound 22g] | >345 |  |
| O=C(Nc1cc(C(F)(F)F)cc(C(F)(F)F)c1)c1ccc([N+](=O)[O-])o1 [Compound 22n] | >78 |  |
| COc1ccc(NC(=O)c2ccc([N+](=O)[O-])o2)cc1 [Compound 22k] | >261 |  |
| COc1ccc(NC(=O)c2ccc([N+](=O)[O-])o2)cc1C [Compound 22v] | >525 |  |
| C=CCOc1ccc(N(CC=C)C(=O)c2ccc([N+](=O)[O-])o2)cc1C(F)(F)F [Compound 22t] | >9 |  |
| CC1CS(=O)(=O)CCN1/N=C/c1ccc([N+](=O)[O-])o1 (stereo not shown) [Nifurtimox (5), Nifurtimox] |  | treatment cessation due to adverse side effects, share of patients (Chagas’ disease): over 30%; EC50 ([1]; read-out: T. brucei EC50, wild-type bloodstream form, 72 h): 2.1 ± 0.2 µM; EC50 ([2]; Trypanosoma brucei, read-out: EC50, nifurtimox resistant cells): 20.9 ± 1.7 µM; fold increase in EC50 (less sensitive) versus wild-type cells ([2]; nifurtimox-resistant versus wild-type): 9–10 fold |
| O=C(Nc1cccc(Br)c1)c1ccc([N+](=O)[O-])o1 [Compound 22f] | >192 |  |
| Nc1nc(N)nc(Nc2ccc([As]3SCC(CO)S3)cc2)n1 (stereo not shown) [Melarsoprol (3), melarsoprol] |  | death, share of cases ([3]; HAT patients): ~6%; treatment failure rate ([3]; in certain areas): ≤ 30% |
| C=CCOc1ccc(NC(=O)c2ccc([N+](=O)[O-])o2)cc1C(F)(F)F [Compound 22s, N-(4-(Allyloxy)-3-(trifluoromethyl)phenyl)-5-nitrofuran-2-carboxamide] | >8330 | combined trypanocidal action of 22s with nifurtimox ([1]; nifurtimox <700 nM, EC50 of 22s): synergy can be observed; also recorded: synergistic relationship; combined trypanocidal action of 22s with nifurtimox ([1]; nifurtimox above 700 nM): distinct lack of synergy; potency in 22s-resistant cells relative to nifurtimox in wild-type T. brucei (22s-resistant T. brucei): ~70 times |
| CCc1cc(C(N)=O)c(NC(=O)c2cccc([N+](=O)[O-])c2)s1 [Compound 20b] | >8 |  |
| CCCCNC(=O)c1cc(CC)sc1NC(=O)c1ccc([N+](=O)[O-])o1 [Compound 12f] | >60 |  |
| CCc1cc(C(N)=O)c(N)s1 [Compound 13g] |  | activity against T. brucei (in words) [1]: inactive |
| CCOC(=O)c1cc(CC)sc1NC(=O)c1ccc([N+](=O)[O-])o1 [Compound 12a, Ethyl 5-Ethyl-2-(5-nitrofuran-2-carboxamido)thiophene-3-carboxylate] | >640 |  |
